What all share (assay type): biochemical
The target of one experiment is CDK6/Cyclin D3 (Homo sapiens (Human), UniProt Q00534). The experiment can be described thus: Kinase activity assay (Caliper Mobility Shift Assay), CDK6/Cyclin D3. On the procedure: (§1) The inhibitory effect of compounds against the kinase CDK4/cyclin D3 was detected by Caliper Mobility Shift Assay method. The final concentration of the compounds to be tested was set at 10 concentrations starting from 1 uM by 3-fold serial dilution. 5 μL of compounds at 5-fold final concentration and 10 μL of CDK4/cyclin D3 kinase solution at a final concentration of 10 nM was added to a 384-well reaction plate, respectively. The plate was pre-incubated for 10 min at room temperature (with negative control wells containing 10 uL of kinase buffer and 5 uL of 5% DMSO; positive control wells containing 10 μL of kinase solution and 5 uL of 5% DMSO). The reaction was initiated by adding 10 μL of ATP at a final concentration of 250 uM and the corresponding substrate peptide mixture at room temperature for 150 minutes. 30 uL of stop detection solution containing EDTA was added to stop the kinase reaction. Caliper EZ Reader was used to read the conversion rate. Conversion inhibition rate %=(average conversion rate of positive control %−conversion rate of sample %)/(average conversion rate of positive control %−average conversion rate of negative control %). wherein: negative control wells represent the conversion rate readings of wells without enzymatic activity; positive control wells represent conversion readings for wells with no compound inhibition. The log(inhibitor) vs. response—Variable slope of the analysis software GraphPad Prism 5 was used with log concentration value as the X-axis and the percent inhibition rate as the Y-axis to fit the dose-response curve, the IC50 value of each compound on the enzyme activity was thus obtained. Calculation formula: Y=Bottom+(Top−Bottom)/(1+10^((Log IC50−X)*HillSlope)).
Sequence of CDK6/Cyclin D3 (Q00534 whole entry, species assumed): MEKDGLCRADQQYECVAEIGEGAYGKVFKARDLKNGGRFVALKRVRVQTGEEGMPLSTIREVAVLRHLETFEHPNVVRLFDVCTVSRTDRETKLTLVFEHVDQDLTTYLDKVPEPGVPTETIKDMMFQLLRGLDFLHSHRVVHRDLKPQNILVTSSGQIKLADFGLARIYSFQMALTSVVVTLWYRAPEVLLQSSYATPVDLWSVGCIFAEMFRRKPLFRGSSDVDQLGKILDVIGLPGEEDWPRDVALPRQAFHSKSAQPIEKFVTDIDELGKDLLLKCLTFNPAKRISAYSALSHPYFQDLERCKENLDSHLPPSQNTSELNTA
Sequence of CDK6/Cyclin D3 (P30281 whole entry partner, species assumed): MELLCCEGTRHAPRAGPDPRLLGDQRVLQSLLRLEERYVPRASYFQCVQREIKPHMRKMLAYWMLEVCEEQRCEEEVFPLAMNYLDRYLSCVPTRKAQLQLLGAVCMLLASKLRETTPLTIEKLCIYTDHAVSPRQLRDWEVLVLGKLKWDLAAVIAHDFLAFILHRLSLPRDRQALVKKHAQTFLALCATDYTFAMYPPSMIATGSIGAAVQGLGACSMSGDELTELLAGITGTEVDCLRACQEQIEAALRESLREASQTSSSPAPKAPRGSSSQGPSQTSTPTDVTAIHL
(§2) The IC50 values and inhibitory activities of compounds of the present disclosure on CDK6/Cyclin D3, CDK2/Cyclin A2, and CDK9/cyclin T1 were tested in a similar manner.

The target in the next experiment is CDK9/cyclin T1 (Homo sapiens (Human), UniProt P50750). The experiment is described as follows: Kinase activity assay (Caliper Mobility Shift Assay), CDK9/cyclin T1. On the procedure:
as §1, §2

A further experiment concerns the target CDK4/cyclin D3 (Homo sapiens (Human), UniProt P11802). The experiment can be described thus: Kinase activity assay (Caliper Mobility Shift Assay), CDK4/cyclin D3. The note with it: 10 nM kinase, 250 uM ATP. As for the experimental part: as §1
The target of a further experiment is CDK2/Cyclin A2 (Homo sapiens (Human), UniProt P24941). The experiment can be described thus: Kinase activity assay (Caliper Mobility Shift Assay), CDK2/Cyclin A2. On the procedure: as §1, §2

Sequence of CDK9/cyclin T1 (P50750 whole entry, species assumed): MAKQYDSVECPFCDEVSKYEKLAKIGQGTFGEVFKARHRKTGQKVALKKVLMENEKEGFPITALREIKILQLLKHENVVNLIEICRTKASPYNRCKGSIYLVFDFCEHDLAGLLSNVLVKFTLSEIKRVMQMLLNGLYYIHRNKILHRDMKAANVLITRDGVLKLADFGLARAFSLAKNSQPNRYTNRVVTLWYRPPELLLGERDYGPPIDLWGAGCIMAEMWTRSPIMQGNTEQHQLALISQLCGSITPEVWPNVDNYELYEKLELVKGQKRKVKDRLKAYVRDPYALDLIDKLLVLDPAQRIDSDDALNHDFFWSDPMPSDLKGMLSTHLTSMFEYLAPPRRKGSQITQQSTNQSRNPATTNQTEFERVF
Sequence of CDK9/cyclin T1 (O60563 whole entry partner, species assumed): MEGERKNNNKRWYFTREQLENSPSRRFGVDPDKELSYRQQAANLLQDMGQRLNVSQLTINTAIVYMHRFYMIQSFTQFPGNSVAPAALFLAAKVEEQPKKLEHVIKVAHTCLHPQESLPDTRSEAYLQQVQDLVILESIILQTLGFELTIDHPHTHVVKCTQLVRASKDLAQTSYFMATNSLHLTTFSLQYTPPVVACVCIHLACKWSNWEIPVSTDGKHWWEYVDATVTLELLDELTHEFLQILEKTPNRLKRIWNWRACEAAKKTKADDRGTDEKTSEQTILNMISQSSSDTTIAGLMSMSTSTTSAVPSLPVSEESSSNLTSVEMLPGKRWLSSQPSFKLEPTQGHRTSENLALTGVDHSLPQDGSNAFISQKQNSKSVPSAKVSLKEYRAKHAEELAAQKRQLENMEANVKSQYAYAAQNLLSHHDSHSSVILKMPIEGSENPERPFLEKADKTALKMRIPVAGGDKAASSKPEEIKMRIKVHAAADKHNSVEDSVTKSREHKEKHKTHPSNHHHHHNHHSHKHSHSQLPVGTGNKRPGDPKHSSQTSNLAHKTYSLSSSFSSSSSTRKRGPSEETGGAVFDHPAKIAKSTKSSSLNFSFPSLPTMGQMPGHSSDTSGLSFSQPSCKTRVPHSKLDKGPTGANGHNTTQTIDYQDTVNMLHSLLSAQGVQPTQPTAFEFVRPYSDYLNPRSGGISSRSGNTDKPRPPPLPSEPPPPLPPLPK
Sequence of CDK4/cyclin D3 (P11802 whole entry, species assumed): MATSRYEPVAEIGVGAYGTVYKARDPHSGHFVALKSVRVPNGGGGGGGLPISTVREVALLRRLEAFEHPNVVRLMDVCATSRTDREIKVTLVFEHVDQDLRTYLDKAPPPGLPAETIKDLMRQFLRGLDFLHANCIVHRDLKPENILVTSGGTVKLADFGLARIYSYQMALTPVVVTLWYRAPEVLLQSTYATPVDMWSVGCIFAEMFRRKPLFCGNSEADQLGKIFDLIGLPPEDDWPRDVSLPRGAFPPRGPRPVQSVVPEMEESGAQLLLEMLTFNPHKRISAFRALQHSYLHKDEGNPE
Sequence of CDK4/cyclin D3 (P30281 whole entry partner, species assumed): as the sequence (P30281 whole entry partner, species assumed) above

`CC(C)c1noc2ccc3cnc(N[C@H]4CC[C@H](NC5CCOCC5)CC4)nc3c12` [I.1, (1R,4R)-N^1-(9-isopropylisoxazolo[5,4-h]quinazolin-2-yl)-N^4-(tetrahydro-2H-pyran-4-yl)cyclohexane-1,4-diamine]: the IC50 at CDK6/Cyclin D3 was 36 nM; at CDK9/cyclin T1, 25 nM; on CDK4/cyclin D3, 32 nM; at CDK2/Cyclin A2, 42 nM.

As for `CC(C)c1noc2ccc3cnc(N[C@H]4CC[C@H](NC5CCNCC5)CC4)nc3c12` [I.2, (1R,4R)-N^1-(9-isopropylisoxazolo[5,4-h]quinazolin-2-yl)-N^4-(piperidin-4-yl)cyclohexane-1,4-diamine], the IC50 at CDK6/Cyclin D3 amounted to 26 nM; on CDK9/cyclin T1, 16 nM; at CDK4/cyclin D3, 22 nM; at CDK2/Cyclin A2 it was 12 nM.

For `CC(C)n1nnc2ccc3cnc(N[C@H]4CC[C@H](NC5CCOCC5)CC4)nc3c21` [II.2, (1R,4R)-N^1-(1-isopropyl-1H-[1,2,3]triazolo[4,5-h]quinazolin-8-yl)-N^4-(tetrahydro-2H-pyran-4-yl)cyclohexane-1,4-diamine], the IC50 was 22 nM on CDK6/Cyclin D3, 8 nM at CDK9/cyclin T1, 16 nM on CDK4/cyclin D3 and 20 nM on CDK2/Cyclin A2.

Take `CC(C)n1nnc2ccc3cnc(N[C@H]4CC[C@H](N5CCN(CC6CCCC6)CC5)CC4)nc3c21` [II.8, N-((1R,4R)-4-(4-(cyclopentylmethyl)piperazin-1-yl)cyclo-hexyl)-1-isopropyl-1H-[1,2,3]triazolo[4,5-h]quinazolin-8-amine]: the IC50 at CDK6/Cyclin D3 was 37 nM; on CDK9/cyclin T1, 11 nM; at CDK4/cyclin D3, 43 nM; at CDK2/Cyclin A2, > 500 nM.

For the compound `CC(C)n1nnc2c(C(F)F)cc3cnc(NC4CCN(S(=O)(=O)C(F)F)CC4)nc3c21` [II.30, 4-(difluoromethyl)-N-(1-((difluoromethyl)sulfonyl)piperidin-4-yl)-1-isopropyl-1H-[1,2,3]triazolo[4,5-h]quinazolin-8-amine], the figures for the half-inhibitory concentration (IC50) on CDK6/Cyclin D3, at CDK4/cyclin D3 and on CDK2/Cyclin A2 were 6 nM, 3 nM and 0.3 nM, respectively.

As for `CC(C)n1nnc2c(CC(F)(F)F)cc3cnc(NC4CCN(S(C)(=O)=O)CC4)nc3c21` [II.31, 1-isopropyl-N-(1-(methylsulfonyl)piperidin-4-yl)-4-(2,2,2-trifluoro-ethyl)-1H-[1,2,3]triazolo[4,5-h]quinazolin-8-amine], the values for the IC50 on CDK6/Cyclin D3, at CDK4/cyclin D3 and on CDK2/Cyclin A2 were 2 nM, 1 nM and 0.2 nM, respectively.

`C[C@@]1(O)CCC[C@H]1n1nnc2ccc3cnc(NC4CCN(S(C)(=O)=O)CC4)nc3c21` [II.32, (1R,2R)-1-methyl-2-(8-((1-(methylsulfonyl)piperidin-4-yl)amino)-1H-[1,2,3]triazolo[4,5-h]quinazolin-1-yl)cyclopentan-1-ol]: the IC50 was 9 nM at CDK6/Cyclin D3, 5 nM at CDK4/cyclin D3 and 0.2 nM on CDK2/Cyclin A2.

Turning to `C[C@@]1(O)CCC[C@H]1n1nnc2c(C(F)F)cc3cnc(NC4CCN(S(C)(=O)=O)CC4)nc3c21` [II.33], the 50% inhibitory concentration (IC50) at CDK6/Cyclin D3 worked out at 5 nM; on CDK4/cyclin D3 it was 3 nM; at CDK2/Cyclin A2 it was 0.3 nM.

For the compound `CC(C)n1nnc2ccc3cnc(NC4CCCNC4)nc3c21` (stereo not shown) [II.34, 1-isopropyl-N-(piperidin-3-yl)-1H-[1,2,3]triazolo[4,5-h]quinazolin-8-amine], the IC50 on CDK6/Cyclin D3 was 35 nM; at CDK4/cyclin D3 it was 55 nM; at CDK2/Cyclin A2 it was 296 nM.

In the case of `CC(C)n1nnc2ccc3cnc(NC4CCC(=O)NC4)nc3c21` (stereo not shown) [II.35, 5-((1-isopropyl-1H-[1,2,3]triazolo[4,5-h]quinazolin-8-yl)amino)piperidin-2-one], the IC50 worked out at 58 nM on CDK6/Cyclin D3, 50 nM at CDK4/cyclin D3 and 10 nM on CDK2/Cyclin A2.

Turning to `CC(C)n1nnc2ccc3cnc(NC4CCCNC4=O)nc3c21` (stereo not shown) [II.36, 3-((1-isopropyl-1H-[1,2,3]triazolo[4,5-h]quinazolin-8-yl)amino)piperidin-2-one], the IC50 at CDK6/Cyclin D3 is 446 nM; on CDK4/cyclin D3, 253 nM; at CDK2/Cyclin A2, > 500 nM.

Consider `CC(C)n1nnc2c1-c1nc(NC3CCN(S(C)(=O)=O)CC3)ncc1CC2` [II.37, 1-isopropyl-N-(1-(methylsulfonyl)piperidin-4-yl)-4,5-dihydro-1H-[1,2,3]triazolo[4,5-h]quinazolin-8-amine], for which the IC50 at CDK6/Cyclin D3 turned out to be 12 nM; at CDK4/cyclin D3, 4 nM; on CDK2/Cyclin A2, 0.5 nM.

On to `CC(C)n1nnc2c1-c1nc(NC3CCN(S(=O)(=O)C4CC4)CC3)ncc1CC2` [II.38, N-(1-(cyclopropylsulfonyl)piperidin-4-yl)-1-isopropyl-4,5-dihydro-1H-[1,2,3]triazolo[4,5-h]quinazolin-8-amine], for which the half-inhibitory concentration (IC50) stood at 7 nM on CDK6/Cyclin D3, 3 nM on CDK4/cyclin D3 and 0.3 nM at CDK2/Cyclin A2.

In the case of `CC(C)n1nnc2c1-c1nc(NC3CCN(S(=O)(=O)C(F)F)CC3)ncc1CC2` [II.39, N-(1-((difluoromethyl)sulfonyl)piperidin-4-yl)-1-isopropyl-4,5-dihydro-1H-[1,2,3]triazolo[4,5-h]quinazolin-8-amine], the figures for the IC50 on CDK6/Cyclin D3, at CDK4/cyclin D3 and at CDK2/Cyclin A2 were 10 nM, 3 nM and 0.5 nM, respectively.

The record behind these values is patent publication US20230416271A1, “HETEROARYLQUINAZOLINE COMPOUNDS AS PROTEIN KINASE INHIBITORS” (CHENGDU CYNOGEN BIO-PHARMACEUTICAL TECHNOLOGY CO., LTD., priority 2020, published 2023).
